Reference: patent publication US20020013306A1, “TERPYRIDINE-PLATINUM(II) COMPLEXES” (priority 1996, published 2002)
pIC50: −log10 of the molar value.

How the values were obtained:
[1] = Acid/base stability by NMR; conditions: diethylamine in deuterated chloroform; directly afterwards and after 20 hours
Description: Diethylamine (2 ml) was added to a solution of 4′-aziridinoterpyridine (5 mg) in deuterated chloroform in a NMR tube.
NMR spectra were recorded immediately and after 1, 2, 4 and 24 hours.

[2] = tested on: CH1dox^R human ovarian carcinoma cell line (doxorubicin resistant); test: 96 h growth inhibition, sulforhodamine B assay, CH1doxR; type: cell-based; conditions: for pIC50: 96 h exposure, growth inhibition
DNA [3] = test: Ligation assay (DNA unwinding); type: binding
Description: (§1) The double positive charge on 4-picoline-2,2′:6′,2″-terpyridine-platinum(II), together with the intercalative binding mode is probably responsible for the large binding constant.

[4] = tested on: CH1cis^R human ovarian carcinoma cell line (cisplatin resistant); test: 96 h growth inhibition, sulforhodamine B assay, CH1cisR; type: cell-based; conditions: for pIC50: 96 h exposure, growth inhibition, v = variable (mean)
[5] = tested on: A2780cis^R human ovarian carcinoma cell line (cisplatin resistant); test: 96 h growth inhibition, sulforhodamine B assay, A2780cisR; type: cell-based; conditions: 96 h exposure; growth inhibition; v = variable (mean)
[6] = tested on: SKOV3 human ovarian carcinoma cell line; test: 96 h growth inhibition, sulforhodamine B assay, SKOV3; type: cell-based; conditions: 96 h exposure, v = variable (mean)
[7] = tested on: T. brucei (S427) bloodstream trypomastigotes; test: Trypanosoma brucei bloodstream trypomastigote culture; type: cell-based
[8] = tested on: CHl human ovarian carcinoma subcutaneously implanted xenograph; test: CH1 human ovarian carcinoma xenograft in vivo
Description: In view of the in vitro results, compound (A) was investigated in vivo using the CHl human ovarian carcinoma subcutaneously implanted xenograph. The compound was administered intraperitoneally at weekly intervals for 4 weeks. Two dose levels were used; 30 and 60 mg/kg. Tumours were approximately 6-8 mm maximum diameter at the beginning of treatment. […] Two endpoints were determined, the 28 day T/C (the ratio of Treated versus Control volumes at day 28 post initial treatment) and the growth delay (GD: the difference in time taken for Treated versus Control groups to double in volume).
At the lower dose there was a growth delay (GD) 83.1. […] It seems likely that by using a still lower and more frequent drug schedule (e.g. daily) greater control over tumour growth could be achieved.

DNA [9] = test: Fluorescence spectroscopy, ethidium bromide displacement; type: binding
Description: as §1

T. cruzi (MHOM/BR/00/Y) = test: Trypanosoma cruzi in mouse peritoneal macrophages; type: cell-based
Description: Trypanosoma cruzi: […] Drug activity was determined from the % of infected macrophages in treated cultures. Nifurtimox was used as the positive control.

polyfd(A-T)2) = test: Circular dichroism equilibrium binding
Description: as §1

[10] = tested on: A2780 human ovarian carcinoma cell line; test: 96 h growth inhibition, sulforhodamine B assay, A2780; type: cell-based; conditions: 96 h exposure, v = variable (mean)
[11] = Single intraperitoneal injection toxicity in tumour-bearing mice (ADJ/PC6); type: in vivo
Description: Compound (A) was also administered as a single intraperitoneal injection in water to mice bearing subcutaneously implanted tumours e.g. ADJ/PC6 (according to the standard protocol for evaluating platinum complexes).

[12] = tested on: CH1 human ovarian carcinoma cell line; test: 96 h growth inhibition, sulforhodamine B assay, CH1; type: cell-based; conditions: 96 h exposure, v = variable (mean)
[13] = deuterated water; NMR immediately, 1, 2, 17 hours, one and two weeks
Description: A solution of (4-picoline) (4′-aziridinoterpyridine) platinum (II) tetrafluoroborate in deuterated water was prepared. NMR spectra were recorded immediately, after 1, 2 and 17 hours, then after one and two weeks.

| Structure (SMILES) | pIC50 [2] | pIC50 [4] | pIC50 [5] | pIC50 [6] | % Inhibition, Trypanosoma brucei ([7]; 0.1 μM) [%] | % Inhibition, Trypanosoma brucei ([7]; 0.3 μM) [%] | % Inhibition, Trypanosoma brucei ([7]; 1 μM) [%] | % Inhibition, Trypanosoma brucei ([7]; 3 μM) [%] | % Inhibition, Trypanosoma brucei ([7]; 10 μM) [%] | % Inhibition, Trypanosoma brucei ([7]; 30 μM) [%] | % Inhibition, Trypanosoma cruzi (T. cruzi (MHOM/BR/00/Y); 30 μM) [%] | pIC50 [10] | pIC50 [12] | also measured |
| --- | --- | --- | --- | --- | --- | --- | --- | --- | --- | --- | --- | --- | --- | --- |
| c1ccc(-c2cc(N3CC3)cc(-c3ccccn3)n2)nc1 [4′-aziridinoterpyridine, 4′-Aziridino-2,2′:6′,2″-Terpyridine] | – | – | – | – | – | – | – | – | – | – | – | – | – | stability to base [1]: No change in the NMR spectrum |
| Cc1ccncc1.F[B-](F)(F)F.F[B-](F)(F)F.[Pt+2].c1ccc(-c2cccc(-c3ccccn3)n2)nc1 [A, 4-picoline-2,2′:6′:2″-terpyridine-platinum(II) tetrafluoroborate] | 5.36 | 4.96 | < 4.00 | 4.70 | 100 | 100 | 100 | 100 | 100 | 100 | 100 | 4.77 | 4.85 | RF resistance factor: IC50 resistant line/IC50 parent line ([2]; CH1dox^R / CH1): 0.3; DNA unwinding / intercalation in ligation assay (DNA [3]): unwind and so intercalate into DNA; RF resistance factor: IC50 resistant line/IC50 parent line ([4]; CH1cis^R / CH1): 0.8; % Inhibition, Trypanosoma brucei ([7]; 0.03 μM): 83.3%; growth delay (GD) ([8]; 30 mg/kg (lower dose) intraperitoneally, weekly for 4 weeks): 83.1; local peritoneal organ damage ([8]; 60 mg/kg (higher dose) i.p. weekly for 4 weeks): evidence, of local peritoneal organ damage; deaths due to drug toxicity ([8]; 30 and 60 mg/kg i.p. weekly for 4 weeks): no deaths due to drug toxicity; effect on tumour growth (Relative Tumour Volume) ([8]; 30 and 60 mg/kg i.p. weekly for 4 weeks, especially at the lower dose): induces a growth inhibitory effect; displacement of ethidium bromide bound to DNA (DNA [9]): displaces ethidium bromide bound to DNA; equilibrium binding constant, second binding mode (polyfd(A-T)2); site size of about 2 base pairs): about 1×10^6 M^−1; equilibrium binding constant, most stable binding mode (polyfd(A-T)2); site size of about 4 base pairs): approximately 2×10^7 M^−1; toxicity, single intraperitoneal injection ([11]; 50 mg/kg in water): no toxic affect; toxicity, single intraperitoneal injection ([11]; 100 mg/kg in water): toxic; LD50 ([11]; single intraperitoneal injection): approximately 70 mg/kg |
| Cc1ccncc1.F[B-](F)(F)F.F[B-](F)(F)F.[Pt+2].c1ccc(-c2cc(N3CC3)cc(-c3ccccn3)n2)nc1 [T, (4-Picoline)(4′-Aziridino-2,2′:6′,2″-Terpyridine) Platinum (II) Tetra-fluoroborate] | 5.38 | 5.43 | 4.70 | 4.72 | 54.2 | 78.9 | 100 | 100 | 100 | 100 | 0 | 5.11 | 5.34 | % Inhibition, Trypanosoma cruzi (T. cruzi (MHOM/BR/00/Y); 1 μM): 0%; % Inhibition, Trypanosoma cruzi (T. cruzi (MHOM/BR/00/Y); 3 μM): 0%; % Inhibition, Trypanosoma cruzi (T. cruzi (MHOM/BR/00/Y); 10 μM): 0%; stability in aqueous solution [13]: stable to nucleophilic attack by water under neutral conditions |
